Data reported in ChEMBL document CHEMBL2440076, “New triarylpyrazoles as broad-spectrum anticancer agents: design, synthesis, and biological evaluation” (Eur J Med Chem, 2013).

Key:
OVCAR-3 = assay: Growth inhibition of human OVCAR3 cells assessed as cell growth at 10 uM after 48 hrs by sulforhodamine B assay; assay type: functional; conditions: OVCAR-3, 48 h, read-out: Activity
SK-MEL-5 = assay: Growth inhibition of human SK-MEL-5 cells assessed as cell growth at 10 uM after 48 hrs by sulforhodamine B assay; assay type: functional; conditions: SK-MEL-5, 48 h, read-out: Activity
KM12 = assay: Growth inhibition of human KM12 cells assessed as cell growth at 10 uM after 48 hrs by sulforhodamine B assay; assay type: functional; conditions: KM12, 48 h, read-out: Activity
NCI-H522 = assay: Growth inhibition of human NCI-H522 cells assessed as cell growth at 10 uM after 48 hrs by sulforhodamine B assay; assay type: functional; conditions: NCI-H522, 48 h, read-out: Activity
NCI-H226 = assay: Growth inhibition of human NCI-H226 cells assessed as cell growth at 10 uM after 48 hrs by sulforhodamine B assay; assay type: functional; conditions: NCI-H226, 48 h, read-out: Activity
MDA-MB-468 = assay: Growth inhibition of human MDA-MB-468 cells after 48 hrs by sulforhodamine B assay; assay type: functional, cell-based; conditions: MDA-MB-468, 48 h; for CC50: read-out: LC50 (the source's name)
OVCAR-4 = assay: Growth inhibition of human OVCAR4 cells after 48 hrs by sulforhodamine B assay; assay type: functional; conditions: OVCAR-4, 48 h
SK-MEL-2 = assay: Growth inhibition of human SK-MEL-2 cells after 48 hrs by sulforhodamine B assay; assay type: functional; conditions: SK-MEL-2, 48 h
SNB-75 = assay: Growth inhibition of human SNB75 cells after 48 hrs by sulforhodamine B assay; assay type: functional; conditions: SNB-75, 48 h
U-251 = assay: Growth inhibition of human U251 cells after 48 hrs by sulforhodamine B assay; assay type: functional; conditions: U-251, 48 h
SF-539 = assay: Growth inhibition of human SF539 cells after 48 hrs by sulforhodamine B assay; assay type: functional; conditions: SF-539, 48 h
SF-268 = assay: Growth inhibition of human SF268 cells after 48 hrs by sulforhodamine B assay; assay type: functional; conditions: SF-268, 48 h; for CC50: read-out: LC50 (the source's name)

Compound	growth at 10 µM (OVCAR-3)	growth at 10 µM (SK-MEL-5)	growth at 10 µM (KM12)	growth at 10 µM (NCI-H522)	growth at 10 µM (NCI-H226)	GI50 (MDA-MB-468)	IC50 (MDA-MB-468)	TGI (MDA-MB-468)	CC50 (MDA-MB-468)	GI50 (OVCAR-4)	LC50 (concentration killing 50% of cells) (OVCAR-4)	TGI (OVCAR-4)	GI50 (SK-MEL-2)	LC50 (50% lethal concentration) (SK-MEL-2)	TGI (SK-MEL-2)	GI50 (SNB-75)	LC50 (lethal concentration, 50% net cell kill) (SNB-75)	GI50 (U-251)	LC50 (concentration killing 50% of cells) (U-251)	TGI (U-251)	further results
COc1cc(-c2nn(-c3cccc(NC(=O)Nc4ccccc4)c3)cc2-c2ccncc2)ccc1Cl	86.4%	79.9%	73.7%	67.4%	92.3%	–	–	–	–	–	–	–	–	–	–	–	–	–	–	–	–
COc1cc(-c2nn(-c3cccc(NC(=O)c4ccccc4)c3)cc2-c2ccncc2)ccc1Cl	0.02%	-49.4%	12.3%	-29.6%	39.1%	0.349 µM	0.35 µM	3.42 µM	> 100 µM	1.17 µM	> 100 µM	> 100 µM	0.389 µM	> 100 µM	4.97 µM	0.575 µM	> 100 µM	0.661 µM	> 100 µM	30.8 µM	TGI (SNB-75): > 100 µM; GI50 (SF-539): 0.387 µM; LC50 (concentration killing 50% of cells) (SF-539): > 100 µM; TGI (SF-539): 2.88 µM; GI50 (SF-268): 0.859 µM; TGI (SF-268): > 100 µM; CC50 (SF-268): > 100 µM
COc1cc(-c2nn(-c3cccc(NC(=O)c4ccc(Br)c(C)c4)c3)cc2-c2ccncc2)ccc1Cl	90.9%	71%	82.7%	45.1%	84.7%	–	–	–	–	–	–	–	–	–	–	–	–	–	–	–	–
COc1cc(-c2nn(-c3cccc(NC(=O)c4ccc(Cl)c(C(F)(F)F)c4)c3)cc2-c2ccncc2)ccc1Cl	19.5%	17.5%	28.8%	1.5%	56.3%	3.69 µM	3.69 µM	> 32.5 µM	> 32.5 µM	8.04 µM	> 32.5 µM	> 32.5 µM	1.9 µM	> 32.5 µM	19.7 µM	2.19 µM	> 32.5 µM	3.1 µM	> 32.5 µM	> 32.5 µM	TGI (SNB-75): 29.2 µM; GI50 (SF-539): 4.13 µM; LC50 (concentration killing 50% of cells) (SF-539): > 32.5 µM; TGI (SF-539): 20.3 µM; GI50 (SF-268): 4.86 µM; TGI (SF-268): > 32.5 µM; CC50 (SF-268): > 32.5 µM
COc1cc(-c2nn(-c3cccc(NC(=O)c4ccc(N5CCOCC5)c(C(F)(F)F)c4)c3)cc2-c2ccncc2)ccc1Cl	-29.9%	3.41%	5.64%	0.2%	42.5%	0.183 µM	0.18 µM	0.781 µM	5.53 µM	0.957 µM	> 100 µM	> 100 µM	0.291 µM	> 100 µM	8.24 µM	0.212 µM	> 100 µM	0.399 µM	60.7 µM	3.95 µM	GI50 (SF-539): 0.153 µM; TGI (SF-539): 0.497 µM; GI50 (SF-268): 0.668 µM; TGI (SF-268): > 100 µM; CC50 (SF-268): > 100 µM
O=C(Nc1cccc(-n2cc(-c3ccncc3)c(-c3ccc(Cl)c(O)c3)n2)c1)Nc1ccc(Cl)c(Cl)c1	-4.74%	-40.2%	8.15%	-6.8%	24.7%	0.729 µM	0.73 µM	4.25 µM	> 32.5 µM	1.69 µM	> 32.5 µM	> 32.5 µM	1.03 µM	> 32.5 µM	2.64 µM	1.09 µM	> 32.5 µM	1.51 µM	> 32.5 µM	9.68 µM	TGI (SNB-75): 12.2 µM; GI50 (SF-539): 1.34 µM; LC50 (concentration killing 50% of cells) (SF-539): > 32.5 µM; TGI (SF-539): 8.97 µM; GI50 (SF-268): 1.49 µM; TGI (SF-268): 10.9 µM; CC50 (SF-268): > 32.5 µM
O=C(Nc1cccc(-n2cc(-c3ccncc3)c(-c3ccc(Cl)c(O)c3)n2)c1)Nc1cccc(C(F)(F)F)c1	0.81%	-25.5%	2.46%	-10.8%	35.1%	0.98 µM	0.98 µM	7.83 µM	> 32.5 µM	3.18 µM	> 32.5 µM	> 32.5 µM	2.02 µM	> 32.5 µM	10.8 µM	3.65 µM	> 32.5 µM	1.59 µM	> 32.5 µM	7.65 µM	TGI (SNB-75): > 32.5 µM; GI50 (SF-539): 3.54 µM; LC50 (concentration killing 50% of cells) (SF-539): > 32.5 µM; TGI (SF-539): 11.6 µM; GI50 (SF-268): 1.95 µM; TGI (SF-268): 15.8 µM; CC50 (SF-268): > 32.5 µM
O=C(Nc1cccc(-n2cc(-c3ccncc3)c(-c3ccc(Cl)c(O)c3)n2)c1)Nc1ccc(Cl)c(C(F)(F)F)c1	-43%	-100%	-27.3%	-30%	3.43%	0.541 µM	0.54 µM	1.75 µM	> 32.5 µM	1.2 µM	> 32.5 µM	> 32.5 µM	0.798 µM	5.84 µM	1.73 µM	0.678 µM	> 32.5 µM	0.548 µM	2.74 µM	1.23 µM	TGI (SNB-75): 3.2 µM; GI50 (SF-539): 0.782 µM; LC50 (concentration killing 50% of cells) (SF-539): > 32.5 µM; TGI (SF-539): 2.39 µM; GI50 (SF-268): 1.06 µM; TGI (SF-268): 6.98 µM; CC50 (SF-268): > 32.5 µM
O=C(Nc1cccc(-n2cc(-c3ccncc3)c(-c3ccc(Cl)c(O)c3)n2)c1)c1ccccc1	82.1%	59.4%	70.1%	42.3%	89.6%	–	–	–	–	–	–	–	–	–	–	–	–	–	–	–	–
Cc1cc(C(=O)Nc2cccc(-n3cc(-c4ccncc4)c(-c4ccc(Cl)c(O)c4)n3)c2)ccc1Br	104%	94.4%	97.3%	95.2%	101%	–	–	–	–	–	–	–	–	–	–	–	–	–	–	–	–
O=C(Nc1cccc(-n2cc(-c3ccncc3)c(-c3ccc(Cl)c(O)c3)n2)c1)c1ccc(Cl)c(C(F)(F)F)c1	95.8%	95.2%	88.4%	94.4%	103%	–	–	–	–	–	–	–	–	–	–	–	–	–	–	–	–
